Experimental data reported in patent publication EP4778921A1, “SALT FORM AND CRYSTAL FORM OF NITROGEN-CONTAINING HETEROCYCLIC DERIVATIVE INHIBITOR, AND PREPARATION METHOD THEREFOR AND USE THEREOF” (Shanghai Hansoh Biomedical Co., Ltd., priority 2023, dated 2025).
Where a name gives a salt, the structure may show the parent alone.

Experiments:
[1] = Hygroscopicity experiment (crystal forms of salts and crystal form A of free base); type: physicochemical; details: for weight gain after moisture absorption / hygroscopicity: RH 80%; for hygroscopicity: result in words; for crystal form transformation (XRPD pattern): after 1 cycle of moisture absorption and desorption, 0-95% relative humidity
Description: • 2.1 Experimental objective: The hygroscopicity of different crystal forms of salts of the compound was investigated under various relative humidity conditions to provide a basis for screening and storage of the crystal forms of salts of the compound. • 2.2 Experimental scheme: The crystal forms of salts of the compound were placed in saturated water vapor at different relative humidities to reach a dynamic equilibrium between the compound and the water vapor.
3.1 Experimental objective: The hygroscopicity of crystal form A of free base of the compound was investigated under various relative humidity conditions to provide a basis for screening and storage of the crystal forms of the compound.
3.2 Experimental scheme: The crystal form A of free base of the compound was placed in saturated water vapor at different relative humidities to reach a dynamic equilibrium between the compound and the water vapor. The percentage weight gain of the compound due to moisture absorption was calculated after the equilibrium.

[2] = Solid stability experiment of crystal forms of salts (7 and 14 days); type: physicochemical
Procedure: • 3.1 Experimental objective: To investigate the physical and chemical stability for different crystal forms of salts under the conditions of a high temperature of 60°C (GW), a high humidity of RH = 92.5% (GS), and both a high temperature of 50°C and a high humidity of RH = 75% (JS) and provide a basis for the screening of the crystal forms of salts and the storage of the crystal forms of salts of the compound. • 3.2 Experimental scheme: Different crystal forms of salts (crystal form A of hydrochloride, crystal form A of sulphate, crystal form A of citrate, crystal form A of oxalate, crystal form A of maleate and crystal form A of salicylate) were accurately weighed, and the stability of the crystal forms was investigated for 7 and 14 days under the three conditions of 60°C (GW), 92.5% RH (room temperature, GS), and 50°C/75% RH (JS). […] Therefore, they can well meet the requirements of subsequent drug development. […] Therefore, they both satisfy the requirements for subsequent drug storage.

[3] = Solubility experiments in different media, crystal forms of salts; type: physicochemical; parameters: thermodynamic solubility FaSSIF / thermodynamic solubility FaSSGF / thermodynamic solubility FeSSIF: unit not given here; details: about 2 mg suspended for 24 hours, 37°C, HPLC, external standard method; for thermodynamic solubility FaSSGF: FaSSGF (artificial simulated gastric fluid); for thermodynamic solubility FaSSIF: FaSSIF (fasted-state artificial simulated intestinal fluid); for thermodynamic solubility FeSSIF: FeSSIF (fed-state artificial simulated intestinal fluid)
Description: 4.1 Experimental objective: The solubility of the crystal form A of phosphate, crystal form A of hydrochloride, crystal form A of sulphate, crystal form A of citrate, crystal form A of oxalate, crystal form A of maleate and crystal form A of salicylate in media such as artificial simulated gastric fluid (FaSSGF), fasted-state artificial simulated intestinal fluid (FaSSIF), and fed-state artificial simulated intestinal fluid (FeSSIF) was compared to provide a basis for the evaluation of the potential of the crystal forms of salts being manufactured as a drug. […]

Ba/F3 EGFR Del19/C797S = experiment: Cell proliferation inhibition experiment (Cell Titer-Glo); type: cell-based; details: Mus musculus, 72 hours, read-out: Ba/F3 EGFR Dell9/C797S IC50
Procedure: (§1) Experimental objective: The objective of this test example is to test the inhibitory activity of compounds on the proliferation of different EGFR C797S drug-resistant mutant cell lines Ba/F3 EGFR Del19/T790M/C797S, Ba/F3 EGFR L858R/T790M/C797S, and Ba/F3 EGFR Del19/C797S. Experimental instruments: Centrifuge (Eppendorf 5810R); Microplate reader (BioTek Synergy H1) Pipette (Eppendorf or Rainin); Carbon dioxide incubator (Thermo 311) Cell counter (Life Countess II) Experimental reagents and consumables: • Ba/F3 EGFR Del19/T790M/C797S cells were purchased from KYinno Biotechnology Co., Ltd.; • Ba/F3 EGFR Del19/C797S cells were purchased from CoBioer Biosciences Co., Ltd.; • Ba/F3 EGFR L858R/T790M/C797S cells were purchased from CoBioer Biosciences Co., Ltd.; • Cell Titer-Glo was purchased from Promega, with a catalogue number of G7573; • RPMI 1640 was purchased from Gibco, with a catalogue number of 22400089; • FBS was purchased from Gibco, with a catalogue number of 10091148; • cell culture plates were purchased from Corning, with a catalogue number of 3610. Experimental methods: The inhibitory activity of the compound on the proliferation of different EGFR C797S drug-resistant mutant cell lines was detected using the Cell Titer-Glo method. The different cell lines were cultured in RPMI 1640 complete culture medium containing 10% FBS under conditions of 37°C and 5% CO2, the cells were collected by centrifugation when growing to a certain density, and adjusted to appropriate cell density after counting, the cells were spread on a white 96-well plate at 90 µL/well, and cultured in a 37°C, 5% CO2 incubator overnight, prepared compound solutions at different concentrations were added at 10 µL/well, corresponding solvent controls were set, and all wells were cultured in a 37°C, 5% CO2 incubator for 72 hours, 50 µL of CellTiter-Glo solution was added to each well, shook and mixed evenly, and incubated in the dark for 10 minutes, and a BioTek Synergy H1 microplate reader was used for reading. Experimental data processing method: The luminescence signal value was used to calculate the inhibition rate. Graphpad Prism software was used to fit the concentration and inhibition rate to a nonlinear regression curve, so as to obtain the IC50 value, as shown in the Table below for details.

[4] = test system: Ba/F3 EGFR Del19/T790M/C797S; experiment: as above; type: cell-based; details: Mus musculus, 72 hours, read-out: Ba/F3 EGFR Del19_T790M_C797S IC50
Procedure: as §1

[5] = high temperature, high humidity, and both high temperature and high humidity conditions, 7 and 14 days
[6] = high temperature and high humidity conditions, 7 and 14 days
[7] = placed for a period of time under various conditions

Row | Structure (SMILES) | weight gain after moisture absorption [1] | hygroscopicity [1] | crystal form transformation (XRPD pattern) [1] | stability (impurity increase) [2, 5] | thermodynamic solubility FaSSGF [3] | thermodynamic solubility FaSSIF [3] | thermodynamic solubility FeSSIF [3] | stability (impurity increase) [2, 6] | IC50 (Ba/F3 EGFR Del19/C797S) | stability (impurity increase) [2, 7] | IC50 [4]
1 | CC(C)c1c(F)cc(N2C[C@H](N(C)S(C)(=O)=O)[C@H]2C)c2cnc(Nc3ccnc(-c4cn(C)nc4Cl)n3)cc12 [crystal form A of maleate, N-((2R,3S)-1-(3-((2-(3-chloro-1-methyl-1H-pyrazol-4-yl)pyrimidin-4-yl)amino)-6-fluoro-5-isopropylisoquinolin-8-yl)-2-methylazetidin-3-yl)-N-methylmethanesulphonamide] | 2.050% | – | no crystal form transformation occurred | – | 0.075 | 0.029 | >1.020 | relatively stable | – | – | –
2 | CC(C)c1c(F)cc(N2C[C@H](N(C)S(C)(=O)=O)[C@H]2C)c2cnc(Nc3ccnc(-c4cn(C)nc4Cl)n3)cc12 [crystal form A of hydrochloride, N-((2R,3S)-1-(3-((2-(3-chloro-1-methyl-1H-pyrazol-4-yl)pyrimidin-4-yl)amino)-6-fluoro-5-isopropylisoquinolin-8-yl)-2-methylazetidin-3-yl)-N-methylmethanesulphonamide] | – | – | – | – | 0.072 | 0.214 | >1.016 | – | – | remain stable | –
3 | CC(C)c1c(F)cc(N2C[C@H](N(C)S(C)(=O)=O)[C@H]2C)c2cnc(Nc3ccnc(-c4cn(C)nc4Cl)n3)cc12 [crystal form A of salicylate, N-((2R,3S)-1-(3-((2-(3-chloro-1-methyl-1H-pyrazol-4-yl)pyrimidin-4-yl)amino)-6-fluoro-5-isopropylisoquinolin-8-yl)-2-methylazetidin-3-yl)-N-methylmethanesulphonamide] | 0.1374% | weak hygroscopicity | no crystal form transformation occurred | – | 0.020 | 0.101 | 0.672 | relatively stable | – | – | –
4 | Cc1nn(C)cc1-c1nccc(Nc2cc3c(C(C)C)c(F)cc(N4CC(N(C)S(C)(=O)=O)C4)c3cn2)n1 [Example 6, N-(1-(3-((2-(1,3-dimethyl-1H-pyrazol-4-yl)pyrimidin-4-yl)amino)-6-fluoro-5-isopropylisoquinolin-8-yl)azetidin-3-yl)-N-methylmethanesulphonamide] | – | – | – | – | – | – | – | – | 22 nM | – | –
5 | Cc1nn(C)cc1-c1nccc(Nc2cc3c(C(C)C)c(F)cc(N4C[C@H](CS(C)(=O)=O)[C@H]4C)c3cn2)n1 [Example 4, N-(2-(1,3-dimethyl-1H-pyrazol-4-yl)pyrimidin-4-yl)-6-fluoro-5-isopropyl-8-((2R,3S)-2-methyl-3-((methanesulphonyl)methyl)azetidin-1-yl)isoquinolin-3-amine] | – | – | – | – | – | – | – | – | 18 nM | – | 6.8 nM

Further lines, results first:

Row | weight gain after moisture absorption [1] | hygroscopicity [1] | crystal form transformation (XRPD pattern) [1] | stability (impurity increase) [2, 5] | thermodynamic solubility FaSSGF [3] | thermodynamic solubility FaSSIF [3] | thermodynamic solubility FeSSIF [3] | stability (impurity increase) [2, 6] | IC50 (Ba/F3 EGFR Del19/C797S) | stability (impurity increase) [2, 7] | IC50 [4] | Structure (SMILES)
6 | 1.707% | weak hygroscopicity | no crystal form transformation occurred | relatively stable | 0.070 | 0.035 | 1.228 | – | – | – | – | CC(C)c1c(F)cc(N2C[C@H](N(C)S(C)(=O)=O)[C@H]2C)c2cnc(Nc3ccnc(-c4cn(C)nc4Cl)n3)cc12 [crystal form A of oxalate, N-((2R,3S)-1-(3-((2-(3-chloro-1-methyl-1H-pyrazol-4-yl)pyrimidin-4-yl)amino)-6-fluoro-5-isopropylisoquinolin-8-yl)-2-methylazetidin-3-yl)-N-methylmethanesulphonamide]
7 | – | – | – | – | – | – | – | – | 14 nM | – | – | CC(C)c1c(F)cc(N2CC(N(C)S(C)(=O)=O)C2)c2cnc(Nc3ccnc(-c4cn(C)nc4Cl)n3)cc12 [Example 3, N-(1-(3-((2-(3-chloro-1-methyl-1H-pyrazol-4-yl)pyrimidin-4-yl)amino)-6-fluoro-5-isopropylisoquinolin-8-yl)azetidin-3-yl)-N-methylmethanesulphonamide]
8 | – | – | – | – | – | – | – | – | 19 nM | – | – | CC(C)c1c(F)cc(N2CC(NS(C)(=O)=O)C2)c2cnc(Nc3ccnc(-c4cn(C)nc4Cl)n3)cc12 [Example 13, N-(1-(3-((2-(3-chloro-1-methyl-1H-pyrazol-4-yl)pyrimidin-4-yl)amino)-6-fluoro-5-isopropylisoquinolin-8-yl)azetidin-3-yl)methanesulphonamide]
9 | 1.157% | weak hygroscopicity | no crystal form transformation occurred | – | – | – | – | – | – | – | – | CC(C)c1c(F)cc(N2C[C@H](N(C)S(C)(=O)=O)[C@H]2C)c2cnc(Nc3ccnc(-c4cn(C)nc4Cl)n3)cc12 [crystal form B of hydrochloride, N-((2R,3S)-1-(3-((2-(3-chloro-1-methyl-1H-pyrazol-4-yl)pyrimidin-4-yl)amino)-6-fluoro-5-isopropylisoquinolin-8-yl)-2-methylazetidin-3-yl)-N-methylmethanesulphonamide]
10 | 4.616% | – | no crystal form transformation occurred | – | 0.096 | 0.034 | 1.114 | – | – | remain stable | – | CC(C)c1c(F)cc(N2C[C@H](N(C)S(C)(=O)=O)[C@H]2C)c2cnc(Nc3ccnc(-c4cn(C)nc4Cl)n3)cc12 [crystal form A of sulphate, N-((2R,3S)-1-(3-((2-(3-chloro-1-methyl-1H-pyrazol-4-yl)pyrimidin-4-yl)amino)-6-fluoro-5-isopropylisoquinolin-8-yl)-2-methylazetidin-3-yl)-N-methylmethanesulphonamide]
11 | 0.573% | weak hygroscopicity | no crystal form transformation occurred | relatively stable | 0.053 | 0.159 | >0.870 | – | – | – | – | CC(C)c1c(F)cc(N2C[C@H](N(C)S(C)(=O)=O)[C@H]2C)c2cnc(Nc3ccnc(-c4cn(C)nc4Cl)n3)cc12 [crystal form A of citrate, N-((2R,3S)-1-(3-((2-(3-chloro-1-methyl-1H-pyrazol-4-yl)pyrimidin-4-yl)amino)-6-fluoro-5-isopropylisoquinolin-8-yl)-2-methylazetidin-3-yl)-N-methylmethanesulphonamide]
